Measured values from PubChem BioAssay AID1963846 (Molecular Pharmacology Branch, DTP, NCI, 2024).

Test system: 454973-116-R2-J3-PDC complex spheroid viability
Experiment: Anticancer human tumor 454973-116-R2-J3-PDC patient-derived pancreatic carcinoma cell line growth inhibition [POLQ]
Details: for IC50: curve of first compound; for viability, T/C: stronger effect = lower value
Description: Multicellular complex tumor spheroid response to Polymerase (POL) inhibitors (novobiocin, ART-558, RP6685) in combination with a variety of drugs and investigational agents in selected tumor cell lines
The POL inhibitors (novobiocin, ART-558, and RP6685) were evaluated both individually and in combination with standard of care and investigational anticancer small molecules within a complex spheroid model of solid tumors. . Complex spheroids include a stromal component modeled by human endothelial cells (HUVEC) and fibroblasts modeled by human mesenchymal stem cells (MSCs). The concentration ranges selected for each drug and investigational agent were based upon clinically achievable concentrations if the clinical Cmax of the agent was known.
Compounds. The drugs and investigational agents: novobiocin (NSC847541), ART-558 (NSC835418), RP-6685 (NSC848927), peposertib (NSC802822), ceralasertib (NSC780249), elimusertib (NSC800525), camonsertib (NSC841442), AZD-1390 (NSC803789), olaparib (NSC753686), talazoparib (NSC767125), rucaparib (NSC756644), sotorasib (NSC818433), MRTX-1133 (NSC836407), SN-38 (NSC673596), topotecan (NSC609699), epotoside (NSC141540), doxorubicin (NSC123127), gemcitabine (NSC613327), 5-fluorouracil (NSC19893), paclitaxel (NSC125973), vemurafenib (NSC761431), MSA-2 (NSC828583), SN-011 (NSC837082), adavosertib (NSC754352), prexasertib (NSC758257), carboplatin (NSC241240) and oxaliplatin (NSC266046), were obtained from the National Cancer Institute (NCI) Developmental Therapeutics Program Chemical Repository (21). The FDA-approved anticancer drug set is available from the Developmental Therapeutics Program at https://dtp.cancer.gov/organization/dscb/obtaining/. […] The stock solutions were prepared in dimethyl sulfoxide (DMSO, Sigma-Aldrich, St. Louis, MO, cat. D2650), except for the platinum compounds which were prepared in saline (Quality Biological, Gaithersburg, MD, cat. 114-055-101), at 800-fold the tested concentration and stored at -70 degrees C prior to their use. All drugs and investigational agents were tested over a range starting from a high concentration at or near the clinical Cmax and decreasing in half-log increments. If the clinical Cmax for an agent had not been determined, the highest concentration tested was 10 microM, except for SN-38, which was tested at a high concentration of 1 microM.
Cell Culture. All cells were maintained in an incubator at 37 degrees C and 5% CO2 with 95% humidity. The PDC lines were cultured according to standard operating procedures established by the NCI PDMR (https://pdmr.cancer.gov). Table 3 of the manuscript, lists the cell lines along with the number of the three cell types plated to form the mct-spheroids and media for tumor cell growth. After thawing, all PDC lines, except 997537-175-T-J1-PDC and 415267-285-R-J2-PDC, were cultured in Matrigel-coated flasks prepared with a working solution of 1X Ham's F-12 nutrient mix, without supplementation (Thermo Fisher Scientific, cat. 11765054), 100 U/mL penicillin-streptomycin (Thermo Fisher Scientific, cat. 15140122), and 2.5% Matrigel (Corning Inc., Corning, NY, cat. 354248) for the first three passages. The two PDC lines 997537-175-T-J1-PDC and 415267-285-R-J2-PDC were cultured on uncoated flasks. The 857933-349-R-J2-PDC line was cultured in 6C/Colon 1B media containing advanced DMEM/F-12 (Thermo Fisher Scientific, cat. 12634028), 10 mM HEPES (Thermo Fisher Scientific, cat. 15630080), 1X GlutaMAX supplement (Thermo Fisher Scientific, cat. 35050061), 0.1 mg/mL primocin (InvivoGen, San Diego, CA, cat. ant-pm-2), 10% defined fetal bovine serum, heat inactivated (HyClone Laboratories Inc., Logan, UT, cat. SH30070.03HI), 50% L-WRN conditioned media (ATCC, cat. CRL-3276), 1.25 mM N-Acetyl-L-cysteine (Sigma-Aldrich, cat. A9165), 10 mM nicotinamide (Sigma-Aldrich, cat. N0636), 1X B-27 supplement (Thermo Fisher Scientific, cat. 17504044), 1X N-2 supplement (Thermo Fisher Scientific, cat. […]

[1] = second compound 0.0316 µM, first compound 0.00316 µM
[2] = second compound 0.0316 µM, first compound 0.01 µM
[3] = second compound 0.0316 µM, first compound 0.0316 µM
[4] = second compound 0.0316 µM, first compound 0.1 µM
[5] = second compound 0.1 µM, first compound 0.00316 µM
[6] = second compound 0.1 µM, first compound 0.01 µM
[7] = second compound 0.1 µM, first compound 0.0316 µM
[8] = second compound 0.1 µM, first compound 0.1 µM
[9] = second compound 0.316 µM, first compound 0.00316 µM
[10] = second compound 0.316 µM, first compound 0.01 µM
[11] = second compound 0.316 µM, first compound 0.0316 µM
[12] = second compound 0.316 µM, first compound 0.1 µM
[13] = second compound 1 µM, first compound 0.00316 µM
[14] = second compound 1 µM, first compound 0.01 µM
[15] = second compound 1 µM, first compound 0.0316 µM
[16] = second compound 1 µM, first compound 0.1 µM
[17] = second compound 3.16 µM, first compound 0.00316 µM
[18] = second compound 3.16 µM, first compound 0.01 µM
[19] = second compound 3.16 µM, first compound 0.0316 µM
[20] = second compound 3.16 µM, first compound 0.1 µM
[21] = second compound 10 µM, first compound 0.00316 µM
[22] = second compound 10 µM, first compound 0.01 µM
[23] = second compound 10 µM, first compound 0.0316 µM
[24] = second compound 10 µM, first compound 0.1 µM
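Note: spheroids exposed to drugs for seven days before measurement.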
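Throughout, for viability, T/C: percent viability relative to DMSO vehicle control wells taken as 100%.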

COc1cccc(OCCCN)c1-c1cc(Nc2cnc(C#N)cn2)n[nH]1 + Cc1cccc(N(C)C(=O)C2C(O)CCN2c2nc(C)cc(C(F)(F)F)c2C#N)c1
IC50 (second compound 0.0316 µM): 17.8 nM | IC50 (second compound 0.1 µM): 16 nM | IC50 (second compound 0.316 µM): 16 nM | IC50 (second compound 1 µM): 13.4 nM | IC50 (second compound 3.16 µM): 13.2 nM | IC50 (second compound 10 µM): 13.6 nM | viability, T/C [1]: 109% | viability, T/C [2]: 78.1% | viability, T/C [3]: 21.9% | viability, T/C [4]: 7.22% | viability, T/C (second compound 0.0316 µM, first compound 0.316 µM): 5.75% | viability, T/C (second compound 0.0316 µM, first compound 1 µM): 4.08% | viability, T/C [5]: 95% | viability, T/C [6]: 75.2% | viability, T/C [7]: 13.4% | viability, T/C [8]: 7.01% | viability, T/C (second compound 0.1 µM, first compound 0.316 µM): 6.2% | viability, T/C (second compound 0.1 µM, first compound 1 µM): 4.45% | viability, T/C [9]: 102% | viability, T/C [10]: 77.6% | viability, T/C [11]: 10% | viability, T/C [12]: 6.6% | viability, T/C (second compound 0.316 µM, first compound 0.316 µM): 5.64% | viability, T/C (second compound 0.316 µM, first compound 1 µM): 5.58% | viability, T/C [13]: 104% | viability, T/C [14]: 64.2% | viability, T/C [15]: 8.06% | viability, T/C [16]: 5.29% | viability, T/C (second compound 1 µM, first compound 0.316 µM): 5.1% | viability, T/C (second compound 1 µM, first compound 1 µM): 4.45% | viability, T/C [17]: 112% | viability, T/C [18]: 63% | viability, T/C [19]: 9.04% | viability, T/C [20]: 6.82% | viability, T/C (second compound 3.16 µM, first compound 0.316 µM): 5.92% | viability, T/C (second compound 3.16 µM, first compound 1 µM): 6.01% | viability, T/C [21]: 98.6% | viability, T/C [22]: 64.2% | viability, T/C [23]: 11.1% | viability, T/C [24]: 5.73% | viability, T/C (second compound 10 µM, first compound 0.316 µM): 6.26% | viability, T/C (second compound 10 µM, first compound 1 µM): 5.41%

Cn1ncnc1[C@H]1c2n[nH]c(=O)c3cc(F)cc(c23)N[C@@H]1c1ccc(F)cc1 + Cc1cccc(N(C)C(=O)C2C(O)CCN2c2nc(C)cc(C(F)(F)F)c2C#N)c1
IC50 (second compound 0.0316 µM): > 100 nM | IC50 (second compound 0.1 µM): > 100 nM | IC50 (second compound 0.316 µM): > 100 nM | IC50 (second compound 1 µM): > 100 nM | IC50 (second compound 3.16 µM): > 100 nM | IC50 (second compound 10 µM): > 100 nM | viability, T/C (second compound 0.0316 µM, first compound 0.000316 µM): 109% | viability, T/C (second compound 0.0316 µM, first compound 0.001 µM): 97% | viability, T/C [1]: 91.8% | viability, T/C [2]: 96.1% | viability, T/C [3]: 108% | viability, T/C [4]: 89.6% | viability, T/C (second compound 0.1 µM, first compound 0.000316 µM): 106% | viability, T/C (second compound 0.1 µM, first compound 0.001 µM): 100% | viability, T/C [5]: 95.6% | viability, T/C [6]: 97.2% | viability, T/C [7]: 94.3% | viability, T/C [8]: 90.1% | viability, T/C (second compound 0.316 µM, first compound 0.000316 µM): 102% | viability, T/C (second compound 0.316 µM, first compound 0.001 µM): 104% | viability, T/C [9]: 98.5% | viability, T/C [10]: 97.6% | viability, T/C [11]: 98.5% | viability, T/C [12]: 85.2% | viability, T/C (second compound 1 µM, first compound 0.000316 µM): 110% | viability, T/C (second compound 1 µM, first compound 0.001 µM): 102% | viability, T/C [13]: 103% | viability, T/C [14]: 105% | viability, T/C [15]: 91.7% | viability, T/C [16]: 91.4% | viability, T/C (second compound 3.16 µM, first compound 0.000316 µM): 105% | viability, T/C (second compound 3.16 µM, first compound 0.001 µM): 119% | viability, T/C [17]: 103% | viability, T/C [18]: 108% | viability, T/C [19]: 97.2% | viability, T/C [20]: 85.6% | viability, T/C (second compound 10 µM, first compound 0.000316 µM): 107% | viability, T/C (second compound 10 µM, first compound 0.001 µM): 96% | viability, T/C [21]: 97.5% | viability, T/C [22]: 91.8% | viability, T/C [23]: 101% | viability, T/C [24]: 85%
